pIC50: −log10 of the molar value.
System: smooth muscle cells obtained from the aortas of rats
Experiment: Inhibition of the proliferation of smooth muscle cells (3H-thymidine incorporation)
Format: cell-based
Conditions: semi-maximum inhibition of the thymidine incorporation produced by 10% FCS; rat aortic smooth muscle cells
Experimental: Investigation of the inhibition of the proliferation of smooth muscle cells by the compounds according to the invention
To determine the antiproliferative action of the compounds, smooth muscle cells are used which are obtained from the aortas of rats by the media explant technique [R. Ross, J. Cell, Biol. 50, 172, 1971]. The cells are inoculated into suitable culture dishes, as a rule 96-hole plates, and cultured at 37° C. in 5% CO2 for 2-3 days in medium 199 containing, 7.5% FCS and 7.5% NCS, 2mM L-glutamine and 15 mM HEPES, pH 7.4. The cells are then synchronized for 2-3 days by withdrawal of serum and then stimulated into growth using […] or other factors. Test compounds are simultaneously added. After 16-20 hours, 1 μCi ^3 H-thymidine is added and after a further 4 hours the incorporation of this substance into the TCA-precipitable DNA of the cells is determined. To determine the IC50 values, the active compound concentration is calculated which, on sequential dilution of the active compound, causes semi-maximum inhibition of the thymidine incorporation produced by 10% FCS.

Work on `Cc1cc(C)c2c3c(n(Cc4ccc(C5CCCCC5C(=O)N[C@H](CO)c5ccccc5)cc4)c2n1)CCCC3` (single isomer, unassigned) [Example 27] yielded a pIC50 of 6.24.
`O=C(N[C@H](CO)c1ccccc1)C1CCCCC1c1ccc(Cn2c3ccccc3c3ccncc32)cc1` (single isomer, unassigned) [Example 30] was tested, and the pIC50 was 10.00.
Work on `O=C(N[C@H](CO)c1ccccc1)C1CCCCC1c1ccc(Cn2c3ccccc3c3cccnc32)cc1` (single isomer, unassigned) [Example 32] yielded a pIC50 of 8.70.
Molecule `O=C(N[C@H](CO)c1ccccc1)C1CCCCC1c1ccc(Cn2c3c(c4cccnc42)CCCCC3)cc1` (single isomer, unassigned) [Example 50] has a pIC50 of 9.05.
